Measured values from paper PMC11931356, “New benzimidazole derivatives containing hydrazone group as anticancer agents: Inhibition of carbonic anhydrase IX and molecular docking studies” (Archiv Der Pharmazie, 2025).

How the values were obtained:
rat glial tumor (C6) = test: MTT cell viability assay, C6; type: cell-based; conditions: 24 h incubation, max 100 µM, mean ± SD
Procedure: (§1) Cell lines from the American Type Culture Collection (ATCC) were used to test the human breast adenocarcinoma cell line (MCF7), rat glial tumor (C6), healthy mouse fibroblast cell line (L929), and colon cancer (HT29). Cells were combined with solutions of 1% penicillin (Sigma Aldrich), 10% fetal bovine serum (FBS; Sigma Aldrich), and 89% DMEM (Dulbecco's modified Eagle's medium; Gibco, Thermo Fisher Scientific). The cells were incubated at 37°C with 95% humidity and 5% CO2 to allow the medium to develop.
(§2) All compounds were examined for their cytotoxic effects on the L929, HT29, MCF7, and C6 cell lines using MTT assay. Approximately 1 × 10^4 cells were seeded in each well. Cells were allowed to adhere for 24 h and then the syntheses were applied at different concentrations. All syntheses were run in three repetitions. Wells with a maximum of 100 µM product were incubated for 24 h. Cisplatin was used as the positive control, and all wells devoid of specimens served as negative controls. To identify metabolically active cells, the wells were incubated for 3 h at 37°C after being treated with MTT solution. Following the MTT interaction, DMSO solution was added to the wells after they had been drained. This solution was used to dissolve the formazan crystals, and a color shift indicated how many live cells were present in each well.

[1] = system: L929 (healthy mouse fibroblast cell line); test: MTT cell viability assay, L929; type: cell-based; conditions: max 100 µM, mean ± SD
Procedure: as §1, §2

CA IX enzyme = test: Carbonic anhydrase IX inhibition assay (ELISA kit, CA IX protein level); type: biochemical, human; conditions: for Concentration (CA IX protein level, ELISA): ELISA kit, Control 250,225, lower = stronger inhibition, p < 0.001; for Concantration hCA IX: supplement table, same ELISA values
Procedure: The CA IX inhibitor acetazolamide was used as a positive control.
CA‐IX level was measured using the DCA900, R&D Systems ELISA Kit. In brief, 100 μL samples were incubated with 50 μL assay buffer for 2 h at room temperature (RT) in a 96‐well plate. The well was then washed four times with 400 µL wash buffer. After 200 µL of a conjugate buffer incubated at room temperature for 2 hours, the plate was washed four times with wash buffer. It was then incubated with 200 µL of substrate buffer for 30 min at room temperature. After washing, 50 µL of the stop solution was used to terminate the reaction. The plate was read at 450 nm using an Epoch™ microplate spectrophotometer (BioTek). The concentration of CA IX protein in each sample was calculated using a standard curve.

[2] = system: human breast adenocarcinoma cell line (MCF7); test: MTT cell viability assay, MCF7; type: cell-based; conditions: max 100 µM, mean ± SD
Procedure: as §1, §2

HT29 (colon cancer) = test: MTT cell viability assay, HT29; type: cell-based; conditions: max 100 µM, mean ± SD
Procedure: as §1, §2

Ki67 [3] = test: Immunofluorescent microscope analysis, Ki67 in L929; type: cell-based, mouse; conditions: L929 cell line, compared with the cisplatin-treated group
Procedure: (§3) Immunofluorescent microscope analysis was performed as in the previous study.^[ [33] ^]

BAX [4] = test: RT-PCR expression profile, BAX in HT29; type: cell-based; conditions: HT29 cell lines, effective dose, 24 h, vs control group, p < 0.05
Procedure: (§4) Total RNA was first isolated from the cells to which effective doses of compounds 3d and/or 3j were applied at the 24th hour, by the kit protocols, and then cDNA was synthesized from this total RNA. The expression profiles of Caspase 3, BAX, and BCL‐2 genes from the cDNA samples obtained were analyzed with the RT‐PCR device by the kit protocol. Statistical analysis of the data with the ΔΔCT method was performed using the “RT2 profiler RT‐PCR Array Data Analysis version 3.5” (http://pcrdataanalysissabiosciences.com/pcr/arrayanalysis.php) software.

BAX [5] = test: RT-PCR expression profile, BAX in L929; type: cell-based, mouse; conditions: L929 cell lines, effective dose, 24 h, vs control group, p < 0.05
Procedure: as §4

Ki67 [6] = test: Immunofluorescent microscope analysis, Ki67 in HT29; type: cell-based; conditions: HT29 cell line, compared with the cisplatin-treated group
Procedure: as §3

Caspase 3 = test: RT-PCR expression profile, Caspase 3 in C6; type: cell-based, rat; conditions: C6 cell lines, effective dose, 24 h, vs control group, p < 0.05
Procedure: as §4

Ki67 [7] = test: Immunofluorescent microscope analysis, Ki67 in C6; type: cell-based, rat; conditions: C6 cell line, compared with the cisplatin-treated group
Procedure: as §3

BAX [8] = test: RT-PCR expression profile, BAX in C6; type: cell-based, rat; conditions: C6 cell lines, effective dose, 24 h, vs control group, p < 0.05
Procedure: as §4

Ki67 [9] = test: Immunofluorescent microscope analysis, Ki67 in MCF7; type: cell-based, human; conditions: MCF7 cell line, compared with the cisplatin-treated group
Procedure: as §3

BAX [10] = test: RT-PCR expression profile, BAX in MCF7; type: cell-based, human; conditions: MCF7 cell lines, effective dose, 24 h, vs control group, p < 0.05
Procedure: as §4

[11] = Mus musculus, L929, 24 h incubation
[12] = Homo sapiens, MCF7, 24 h incubation
[13] = Homo sapiens, HT-29, 24 h incubation

In the case of `N#Cc1ccc2[nH]c(-c3ccc(C(=O)NN=Cc4ccc([N+](=O)[O-])o4)cc3)nc2c1` [Compound 3c, 4‐(5‐Cyano‐1H‐benzo[d]imidazol‐2‐yl)‐N′‐[(5‐nitrofuran‐2‐yl)methylene]benzohydrazide], the IC50 (rat glial tumor (C6); Rattus norvegicus) is reported as greater than 100 µM, the IC50 [1, 11] is reported as greater than 100 µM and the “Concentration (CA IX protein level, ELISA)” value (from here on “Concentration”) (CA IX enzyme) is reported as 150,225 pg/mL. For the same molecule, the “Concantration hCA IX” value (CA IX enzyme) was 150,225 pg/ml, the IC50 [2, 12] was greater than 100 µM and the IC50 (HT29 (colon cancer); [13]) was 90.6 ± 12.1 µM.
In the case of `Cc1ccc(C=NNC(=O)c2ccc(-c3nc4cc(C#N)ccc4[nH]3)cc2)s1` [Compound 3j, 4‐(5‐Cyano‐1H‐benzo[d]imidazol‐2‐yl)‐N′‐[(5‐methylthiophen‐2‐yl)methylene]benzohydrazide], the IC50 (rat glial tumor (C6); Rattus norvegicus) is reported as greater than 100 µM, the Ki67 immunolocalisation rate (Ki67 [3]) is reported as “significantly decreased” and the IC50 [1, 11] is reported as greater than 100 µM. The BAX expression increase (BAX [4]) was 3.07 times, the BAX expression increase (BAX [5]) was 105.7 times and the “Concentration” value (CA IX enzyme) was 82,745 pg/mL. For the same molecule, the “Concantration hCA IX” value (CA IX enzyme) was 82,745 pg/ml, the IC50 [2, 12] was greater than 100 µM and the IC50 (HT29 (colon cancer); [13]) was 45.8 ± 15.6 µM. The Ki67 immunolocalisation rate (Ki67 [6]) was “significantly decreased”.
`N#Cc1ccc2[nH]c(-c3ccc(C(=O)NN=Cc4ccco4)cc3)nc2c1` [Compound 3a, 4‐(5‐Cyano‐1H‐benzo[d]imidazol‐2‐yl)‐N′‐[(furan‐2‐yl)methylene]benzohydrazide] showed an IC50 (rat glial tumor (C6); Rattus norvegicus) of 98.9 ± 7.94 µM, an IC50 [1, 11] of 84.6 ± 9.6 µM and an IC50 [2, 12] of 86.4 ± 1.28 µM. It also gave an IC50 (HT29 (colon cancer); [13]) of 71.8 ± 3.68 µM.
For `N.N.[Cl][Pt][Cl]` [Cisplatin, reference compound], the IC50 (rat glial tumor (C6)) was 39.4 ± 6.4 µM, the IC50 ([1]; 24 h incubation) was 88.8 ± 6.4 µM and the IC50 ([2]; 24 h incubation) was 29.6 ± 7.6 µM. The IC50 (HT29 (colon cancer); 24 h incubation) was 59.4 ± 12.6 µM.
In the case of “4‐(5‐Cyano‐1H‐benzo[d]imidazol‐2‐yl)‐N′‐[(imidazol‐2‐yl)methylene]benzohydrazide [Compound 3f]”, the IC50 (rat glial tumor (C6)) is reported as greater than 100 µM, the IC50 ([1]; 24 h incubation) is reported as greater than 100 µM and the “Concentration” value (CA IX enzyme) is reported as 93,975 pg/mL. The “Concantration hCA IX” value (CA IX enzyme) was 93,975 pg/ml, the IC50 ([2]; 24 h incubation) was greater than 100 µM and the IC50 (HT29 (colon cancer); 24 h incubation) was greater than 100 µM.
For `N#Cc1ccc2[nH]c(-c3ccc(C(=O)NN=Cc4ccncc4)cc3)nc2c1` [Compound 3e, 4‐(5‐Cyano‐1H‐benzo[d]imidazol‐2‐yl)‐N′‐[(pyridine‐4‐yl)methylene]benzohydrazide], the IC50 (rat glial tumor (C6); Rattus norvegicus) was greater than 100 µM, the IC50 [1, 11] was greater than 100 µM and the “Concentration” value (CA IX enzyme) was 120,225 pg/mL. The “Concantration hCA IX” value (CA IX enzyme) was 120,225 pg/ml, the IC50 [2, 12] was greater than 100 µM and the IC50 (HT29 (colon cancer); [13]) was greater than 100 µM.
With `N#Cc1ccc2[nH]c(-c3ccc(C(=O)NN=Cc4cccnc4)cc3)nc2c1` [Compound 3h, 4‐(5‐Cyano‐1H‐benzo[d]imidazol‐2‐yl)‐N′‐[(pyridine‐3‐yl)methylene]benzohydrazide] the IC50 (rat glial tumor (C6); Rattus norvegicus) was greater than 100 µM, the IC50 [1, 11] was greater than 100 µM and the “Concentration” value (CA IX enzyme) was 119,425 pg/mL. For the same molecule, the “Concantration hCA IX” value (CA IX enzyme) was 119,425 pg/ml, the IC50 [2, 12] was greater than 100 µM and the IC50 (HT29 (colon cancer); [13]) was greater than 100 µM.
With `N#Cc1ccc2[nH]c(-c3ccc(C(=O)NN=Cc4ccc([N+](=O)[O-])s4)cc3)nc2c1` [Compound 3i, 4‐(5‐Cyano‐1H‐benzo[d]imidazol‐2‐yl)‐N′‐[(5‐nitrothiophen‐2‐yl)methylene]benzohydrazide] the IC50 (rat glial tumor (C6); Rattus norvegicus) was greater than 100 µM, the IC50 [1, 11] was greater than 100 µM and the “Concentration” value (CA IX enzyme) was 92,225 pg/mL. The “Concantration hCA IX” value (CA IX enzyme) was 92,225 pg/ml, the IC50 [2, 12] was greater than 100 µM and the IC50 (HT29 (colon cancer); [13]) was greater than 100 µM.
With `Cc1ccsc1C=NNC(=O)c1ccc(-c2nc3cc(C#N)ccc3[nH]2)cc1` [Compound 3d, 4‐(5‐Cyano‐1H‐benzo[d]imidazol‐2‐yl)‐N′‐[(3‐methylthiophen‐2‐yl)methylene]benzohydrazide] the “Caspase 3 expression increase” value (Caspase 3) was 2.75 times, the IC50 (rat glial tumor (C6); Rattus norvegicus) was 20.5 ± 8.34 µM and the Ki67 immunolocalisation rate (Ki67 [3]) was “significantly decreased”. For the same molecule, the Ki67 immunolocalisation rate (Ki67 [7]) was “significantly decreased”, the IC50 [1, 11] was greater than 100 µM and the BAX expression increase (BAX [4]) was 6.59 times. The “Concentration” value (CA IX enzyme) was 83,975 pg/mL, the “Concantration hCA IX” value (CA IX enzyme) was 83,975 pg/ml and the IC50 [2, 12] was 25.6 ± 16.4 µM. For the same molecule, the BAX expression increase (BAX [8]) was 4.06 times, the IC50 (HT29 (colon cancer); [13]) was 39.1 ± 8.28 µM and the Ki67 immunolocalisation rate (Ki67 [9]) was “significantly decreased”. The BAX expression increase (BAX [10]) was 12.55 times and the Ki67 immunolocalisation rate (Ki67 [6]) was “significantly decreased”.
`N#Cc1ccc2[nH]c(-c3ccc(C(=O)NN=Cc4cccs4)cc3)nc2c1` [Compound 3g, 4‐(5‐Cyano‐1H‐benzo[d]imidazol‐2‐yl)‐N′‐[(thiophen‐2‐yl)methylene]benzohydrazide] was tested, and the IC50 (rat glial tumor (C6); Rattus norvegicus) was greater than 100 µM, the IC50 [1, 11] was greater than 100 µM and the “Concentration” value (CA IX enzyme) was 95,745 pg/mL. The “Concantration hCA IX” value (CA IX enzyme) was 95,745 pg/ml, the IC50 [2, 12] was greater than 100 µM and the IC50 (HT29 (colon cancer); [13]) was greater than 100 µM.
`Cc1ccc(C=NNC(=O)c2ccc(-c3nc4cc(C#N)ccc4[nH]3)cc2)o1` [Compound 3b, 4‐(5‐Cyano‐1H‐benzo[d]imidazol‐2‐yl)‐N′‐[(5‐methylfuran‐2‐yl)methylene]benzohydrazide] was tested, and the IC50 (rat glial tumor (C6); Rattus norvegicus) was greater than 100 µM, the IC50 [1, 11] was greater than 100 µM and the “Concentration” value (CA IX enzyme) was 175,225 pg/mL. The “Concantration hCA IX” value (CA IX enzyme) was 175,225 pg/ml, the IC50 [2, 12] was 88.4 ± 2.18 µM and the IC50 (HT29 (colon cancer); [13]) was 89.6 ± 5.74 µM.
